From patent US20120232142A1, “NOVEL USE OF DIMETHYLFUMARATE” (KYUNGPOOK NATIONAL UNIVERSITY INDUSTRY ACADEMIC COOPERATION …, priority 2007, published 2012)
Where a name gives a salt, the structure may show the parent alone.

Assays:
[1] = test system: vascular smooth muscle cells; experiment: Inhibition of PDGF-induced vascular smooth muscle cell proliferation (WST cell counting); format: cell-based, Sprague-Dawley rat; conditions: 1, 2, 5, 10 μM; PDGF 20 ng/ml; 48 hours; OD 450 nm
Experimental: For culturing vascular smooth muscle cells, vascular smooth muscle cells were isolated from the aorta of Sprague-Dawley rat and were first cultured. Vascular smooth muscle cells were cultured in a culturing apparatus having conditions of 37° C., 5% carbon dioxide until cells are grown up in culture medium containing 20% bovine fetal serum. Cells obtained from the procedure were transferred to a fresh culture dish to culture, and the initial cells subcultured up to 4 to 7 times were used in experiments. First cultured vascular smooth muscle cells were cultured in 96-well culture dish, and when growth reached 70%, they were transferred to a medium containing 0.5% bovine fetal serum, and then cultured for 24 hours and the cells was stood at interphase status. […] The number of viable cells was measured employing WST cell counting kit (WAKO, Japan). A reagent for confirming cell proliferation was treated thereto, reaction was further performed for 4 hours, and then optical density was measured at 450 nm with ELISA reader to investigate the ability of proliferating cells. The results of the experiments were shown by taking an average from values measured in more than three separate experiments.

neointima = experiment: Neointima formation after balloon dilation in rats fed high fat diet (H & E staining); format: in vivo, Sprague-Dawley rats; conditions: 4 weeks
Experimental: In order to confirm whether dimethyl fumarate inhibits the formation of neointima after balloon dilation, experiments were performed with Sprague-Dawley rats fed with food containing dimethyl fumarate. The rats were bred while maintaining conditions that the temperature of the breeding room was maintained at 22±2° C., and brightness was automatically controlled in 12 hour cycles. Rats were categorized into a normal control group, a negative control group fed with only high fat diet (20% fat, 0.05% cholesterol), and an experiment group fed with food containing 0.5% or 1% dimethyl fumarate together with high fat diet (4 rats per each group), and experiments were progressed while breeding for 4 weeks in separate cages containing one rat per cage. Balloon dilation was performed after breeding rats for 2 weeks before the balloon dilation, and breeding was performed for 2 weeks more while continuing on feeding general diet and dimethyl fumarate diet, and then their aorta were separated and the formation of neointima was confirmed with H & E (hematoxylin and eosin) staining method.

AMPK = experiment: Western blot of AMPK and ACC phosphorylation in vascular smooth muscle cells; format: cell-based, Sprague-Dawley rat; conditions: 5 μM; 1, 2, 3, 6, 12 hours
Experimental: (§1) For culturing vascular smooth muscle cells, vascular smooth muscle cells were isolated from the aorta of Sprague-Dawley rat and were first cultured. Vascular smooth muscle cells were cultured in a culturing apparatus having conditions of 37° C., 5% carbon dioxide until cells are grown up in culture medium containing 20% bovine fetal serum. Cells obtained from the procedure were transferred to a fresh culture dish to culture, and the initial cells subcultured up to 4 to 7 times were used in experiments.
(§2) First cultured vascular smooth muscle cells were filled in about 80 to 90% of 60 mm tissue culture dish, and the cells were stood in a medium containing 0.5% FBS for 24 hours to render the cells to be interphase status. […]
(§3) Whole proteins were separated from vascular smooth muscle cells of each group by employing RIPA buffer solution (50 mM Tris-HCl, 150 mM NaCl, 5 mM EDTA, 1% NP-40, 1 mM PMSF, 1 mM DTT, 1 mg/ml protease inhibitor). Separated proteins of each sample were quantitatively analyzed, 25 mg of proteins were mixed with sample buffer solution, the mixture was boiled for 5 minutes and then cooled, electrophoresis was performed for the resulting product in sodium dodecyl sulfate polyacrylamide gel to separate depending on size, then the product was transferred to a PVDF membrane, and then reacted with pAMPK or pACC antibody to confirm phosphorylation thereof. […]

pRb and CDK = experiment: Western blot of Rb phosphorylation and CDK expression in vascular smooth muscle cells with PDGF; format: cell-based, Sprague-Dawley rat
Experimental: as §1
First cultured vascular smooth muscle cells were filled in about 80 to 90% of 60 mm tissue culture dish, and the cells were stood in a medium containing 0.5% FBS for 24 hours to render the cells to be interphase status. The group not treated with dimethyl fumarate was defined as a control, and experimental groups were divided into 3 groups treated with 5 μM dimethyl fumarate for 6, 12 and 24 hours, respectively, with or without PDGF. […] Separated proteins of each sample were quantitatively analyzed, 25 μg of proteins were mixed with sample buffer solution, the mixture was boiled for 5 minutes and then cooled, electrophoresis was performed for the resulting product in sodium dodecyl sulfate polyacrylamide gel to separate depending on size, then the product was transferred to a PVDF membrane, and then reacted with an antibody against pRb or Cyclin. […]

[2] = test system: vascular smooth muscle cells; experiment: Cell cycle analysis by FACS (PI staining) of vascular smooth muscle cells; format: cell-based, Sprague-Dawley rat; conditions: 5 μM pretreated 2 hours; growth factor and insulin 24 hours; stimulated without drug 8.7%
Experimental: For culturing vascular smooth muscle cells, vascular smooth muscle cells were isolated from the aorta of Sprague-Dawley rat and were first cultured. Vascular smooth muscle cells were cultured in a culturing apparatus having conditions of 37° C., 5% carbon dioxide until cells are grown up in culture medium containing 20% bovine fetal serum. Cells obtained from the procedure were transferred to a fresh culture dish to culture, and the initial cells subcultured up to 4 to 7 times were used in experiments. Vascular smooth muscle cells were analyzed for cell cycle employing FACS in order to confirm the effect of dimethyl fumarate on cell cycle. 5 μM dimethyl fumarate were pretreated for 2 hours in the vascular smooth muscle cells cultured in a medium containing 0.5% bovine fetal serum for 24 hours. Cells were treated with a growth factor and insulin to induce cells into replication phase, and reaction was performed for 24 hours. Then cells were collected and immobilized, and then their nucleuses were stained with propidium iodide (PI), and cell cycle was analyzed by employing FACS. Cell cycle was indicated as % by measuring 10,000 cells per each sample.

p53 and p21 = experiment: Western blot of p53 and p21 expression in vascular smooth muscle cells; format: cell-based, Sprague-Dawley rat; conditions: 5 μM; 1, 2, 3, 6, 12 hours
Experimental: as §1, §2
as §3, with “mM Tris HCl,” for “mM Tris-HCl,”, “25 μg” for “25 mg”, “with p53” for “with pAMPK”, “or p21” for “or pACC”, “confirm the expression” for “confirm phosphorylation”

## COC(=O)/C=C/C(=O)OC [dimethyl fumarate]
[1]
  cell proliferation increased by platelet derived growth factor: inhibited as the concentration of dimethyl fumarate was increased
neointima; food containing 0.5% dimethyl fumarate with high fat diet
  formation of neointima after balloon dilation: certainly decreased
neointima; food containing 1% dimethyl fumarate with high fat diet
  formation of neointima after balloon dilation: certainly decreased
AMPK
  activity (phosphorylation) of AMPK: initially increased
  phosphorylation of ACC: continuously increased
pRb and CDK; 5 μM pretreated 2 hours, then PDGF
  expression of CDK: more inhibited
pRb and CDK; 5 μM, 6, 12 and 24 hours, with or without PDGF
  phosphorylation of Rb promoted by a growth factor or CDK: inhibits
[2]
  cells in replication phase status: 3.4%
p53 and p21
  expression of p21: increased
  expression of p53: increased
